# According to patent US20210395210A1, “INHIBITION OF BACTERIAL CHAPERONIN SYSTEMS” (THE TRUSTEES OF INDIANA UNIVERSITY, priority 2018, published 2021):
# Where two headings read alike, the source gives them in different places.
# Tests used:
# [1] = Liver cell viability assay (Alamar Blue); conditions: human
# Method: HEK 293 cells were maintained in MEM medium (Corning Cellgro, 10-009 CV) supplemented with 10% FBS (Sigma, F2242). […] Cells at 80% confluence were harvested and diluted in growth medium, then 45 μL of the THLE-3 cells (1,500 cells/well) or HEK 293 cells (1,500 cells/well) were dispensed per well, and plates were sealed with “Breathe Easy” oxygen permeable membranes (Diversified Biotech) and incubated at 37° C., 5% CO2, for 24 h.
# [2] = target: T1, native Rho (rhodanese) (Bos taurus, UniProt P00586); test: Counter-screen for inhibition of native rhodanese enzymatic activity; type: biochemical; conditions: for log(IC50) Native Rho Reporter: log of IC50 (μM scale), with standard deviation; for inhibition of native Rho enzymatic activity (in words): false-positive counter-screen
# T1 construct: purchased Roche (so in the source) R1756
# T1 sequence (P00586 1-297): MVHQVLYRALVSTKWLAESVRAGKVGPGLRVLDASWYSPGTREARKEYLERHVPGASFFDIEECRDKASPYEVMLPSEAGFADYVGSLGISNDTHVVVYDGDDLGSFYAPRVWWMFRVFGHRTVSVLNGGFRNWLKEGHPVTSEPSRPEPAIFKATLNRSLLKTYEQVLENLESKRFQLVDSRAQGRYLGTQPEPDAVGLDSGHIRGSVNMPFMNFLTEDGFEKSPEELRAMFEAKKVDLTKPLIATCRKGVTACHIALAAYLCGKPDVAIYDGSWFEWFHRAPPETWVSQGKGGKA
# Method: Reagent Preparations & Assay Protocol: Reagents were identical to those used in the GroEUES-dRho refolding assay described above; however, the assay protocol differed in the sequence of compound addition to the wells. Compounds were pin-transferred after the 60 minute incubation for the refolding cycle, but prior to the addition of the thiocyanate enzymatic assay stock. Thus, the refolding reactions were allowed to proceed for 60 min at 37° C. in the absence of test compounds, but the enzymatic activity of the refolded rhodanese reporter enzyme was monitored in the presence of test compounds (inhibitor concentration range during the enzymatic reporter reaction is 100 µM to 46 nM-3-fold dilutions). IC50 values for the rhodenase reporter enzyme were determined as described above. Results presented represent the averages of IC50 values obtained from at least quadriplicate (duplicate of duplicate) replicates.
# [3] = read-out: Biochemical Assay IC50 Native Rho Reporter
compound,measurement,setting,value
"CC1(C)S[C@@H]2[C@H](NC(=O)[C@H](N)c3ccccc3)C(=O)N2[C@H]1C(=O)O [Ampicillin, ampicillin, reference compound]",CC50 at 48 h,[1]; THLE-3 liver cells,> 100 µM
same,log(IC50) Native Rho Reporter,[2],>2
same,IC50,[2]; [3],> 100 µM
"Cc1cc(C(C#N)c2ccc(Cl)cc2)c(Cl)cc1NC(=O)c1cc(I)cc(I)c1O (stereo not drawn) [Closantel, closantel, reference compound]",CC50 at 48 h,[1],52.5 µM
same,log(IC50) Native Rho Reporter,[2],>2
same,IC50,[2]; [3],> 100 µM
"O=C(Nc1ccc(Sc2nc3ccccc3s2)c(Cl)c1)c1cc(Br)ccc1O [Compound 3, N-(4-(Benzo[d]thiazol-2-ylthio)-3-chlorophenyl)-5-bromo-2-hydroxybenzamide]",inhibition of native Rho enzymatic activity (in words),[2],inactive against the reporter enzymes
same,IC50,[2]; [3],> 100 µM
"O=C(Nc1ccc(Sc2nc3ccccc3s2)c(Cl)c1)c1ccccc1O [Compound 4, N-(4-(Benzo[d]thiazol-2-ylthio)-3-chlorophenyl)-2-hydroxybenzamide]",IC50,[2]; [3],> 100 µM
"O=C(Nc1ccc(Sc2nc3ccccc3s2)cc1)c1cccc(Br)c1O [Compound 6, N-(4-(Benzo[d]thiazol-2-ylthio)phenyl)-3-bromo-2-hydroxybenzamide]",inhibition of native Rho enzymatic activity (in words),[2],inactive against the reporter enzymes
"O=C(Nc1ccc(Sc2nc3ccccc3s2)cc1)c1cc(Br)ccc1O [Compound 7, N-(4-(Benzo[d]thiazol-2-ylthio)phenyl)-5-bromo-2-hydroxybenzamide]",inhibition of native Rho enzymatic activity (in words),[2],inactive against the reporter enzymes
same,IC50,[2]; [3],> 100 µM
"O=C(Nc1cccc(Cl)c1)c1cc(Br)cc(Br)c1O [Compound 9, 3,5-Dibromo-N-(3-chlorophenyl)-2-hydroxybenzamide]",CC50 at 48 h,[1],9.12 µM
same,log(IC50) Native Rho Reporter,[2],>2
same,IC50,[2]; [3],> 100 µM
"O=C(Nc1cccc(Cl)c1)c1ccccc1O [Compound 12, N-(3-Chlorophenyl)-2-hydroxybenzamide]",log(IC50) Native Rho Reporter,[2],>2
same,IC50,[2]; [3],> 100 µM
"O=C(Nc1ccccc1)c1cc(Br)cc(Br)c1O [Compound 13, 3,5-Dibromo-2-hydroxy-N-phenylbenzamide]",CC50 at 48 h,[1]; THLE-3 liver cells,25.1 µM
same,log(IC50) Native Rho Reporter,[2],>2
same,IC50,[2]; [3],> 100 µM
"O=C(Nc1ccccc1)c1cccc(Br)c1O [Compound 14, 3-Bromo-2-hydroxy-N-phenylbenzamide]",log(IC50) Native Rho Reporter,[2],>2
same,IC50,[2]; [3],> 100 µM
"O=C(Nc1ccccc1)c1cc(Br)ccc1O [Compound 15, 5-Bromo-2-hydroxy-N-phenylbenzamide]",log(IC50) Native Rho Reporter,[2],>2
same,IC50,[2]; [3],> 100 µM
"O=C(Nc1ccccc1)c1ccccc1O [Compound 16, 2-Hydroxy-N-phenylbenzamide]",CC50 at 48 h,[1],67.6 µM
same,IC50,[2],> 100 µM
same,log(IC50) Native Rho Reporter,[2],>2
"O=C(Nc1ccc(Sc2nc3ccccc3s2)c(Cl)c1)c1cc(Br)cc(Br)c1 [Compound 17, N-(4-(Benzo[d]thiazol-2-ylthio)-3-chlorophenyl)-3,5-dibromobenzamide]",CC50 at 48 h,[1],> 100 µM
same,IC50,[2]; [3],> 100 µM
"O=C(Nc1ccc(Sc2nc3ccccc3s2)c(Cl)c1)c1cccc(Br)c1 [Compound 18, N-(4-(Benzo[d]thiazol-2-ylthio)-3-chlorophenyl)-3-bromobenzamide]",CC50 at 48 h,[1],87.1 µM
same,IC50,[2]; [3],> 100 µM
"O=C(Nc1ccc(Sc2nc3ccccc3s2)c(Cl)c1)c1ccccc1 [Compound 19, N-(4-(Benzo[d]thiazol-2-ylthio)-3-chlorophenyl)benzamide]",IC50,[2]; [3],> 100 µM
"O=C(Nc1ccc(Sc2nc3ccccc3s2)cc1)c1cc(Br)cc(Br)c1 [Compound 20, N-(4-(Benzo[d]thiazol-2-ylthio)phenyl)-3,5-dibromobenzamide]",CC50 at 48 h,[1],> 100 µM
same,IC50,[2]; [3],> 100 µM
"O=C(Nc1ccc(Sc2nc3ccccc3s2)cc1)c1cccc(Br)c1 [Compound 21, N-(4-(Benzo[d]thiazol-2-ylthio)phenyl)-3-bromobenzamide]",IC50,[2]; [3],> 100 µM
"O=C(Nc1ccc(Sc2nc3ccccc3s2)cc1)c1ccccc1 [Compound 22, N-(4-(Benzo[d]thiazol-2-ylthio)phenyl)benzamide]",CC50 at 48 h,[1],> 100 µM
same,IC50,[2]; [3],> 100 µM
"O=C(Nc1cccc(Cl)c1)c1cc(Br)cc(Br)c1 [Compound 23, 3,5-Dibromo-N-(3-chlorophenyl)benzamide]",log(IC50) Native Rho Reporter,[2],>2
same,IC50,[2]; [3],> 100 µM
"O=C(Nc1cccc(Cl)c1)c1cccc(Br)c1 [Compound 24, 3-Bromo-N-(3-chlorophenyl)benzamide]",CC50 at 48 h,[1],50.1 µM
same,log(IC50) Native Rho Reporter,[2],>2
same,IC50,[2]; [3],> 100 µM
"O=C(Nc1cccc(Cl)c1)c1ccccc1 [Compound 25, N-(3-Chlorophenyl)benzamide]",CC50 at 48 h,[1],> 100 µM
same,log(IC50) Native Rho Reporter,[2],>2
same,IC50,[2]; [3],> 100 µM
"O=C(Nc1ccccc1)c1cc(Br)cc(Br)c1 [Compound 26, 3,5-Dibromo-N-phenylbenzamide]",CC50 at 48 h,[1],> 100 µM
same,log(IC50) Native Rho Reporter,[2],>2
same,IC50,[2]; [3],> 100 µM
"O=C(Nc1ccccc1)c1cccc(Br)c1 [Compound 27, 3-Bromo-N-phenylbenzamide]",CC50 at 48 h,[1],> 100 µM
same,log(IC50) Native Rho Reporter,[2],>2
same,IC50,[2]; [3],> 100 µM
"COc1c(Br)cc(Br)cc1C(=O)Nc1ccc(Sc2nc3ccccc3s2)c(Cl)c1 [Compound 29, N-(4-(Benzo[d]thiazol-2-ylthio)-3-chlorophenyl)-3,5-dibromo-2-methoxybenzamide]",CC50 at 48 h,[1],> 100 µM
same,IC50,[2]; [3],> 100 µM
"COc1c(Br)cccc1C(=O)Nc1ccc(Sc2nc3ccccc3s2)c(Cl)c1 [Compound 30, N-(4-(Benzo[d]thiazol-2-ylthio)-3-chlorophenyl)-3-bromo-2-methoxybenzamide]",CC50 at 48 h,[1],> 100 µM
"COc1ccc(Br)cc1C(=O)Nc1ccc(Sc2nc3ccccc3s2)c(Cl)c1 [Compound 31, N-(4-(Benzo[d]thiazol-2-ylthio)-3-chlorophenyl)-5-bromo-2-methoxybenzamide]",CC50 at 48 h,[1],> 100 µM
same,IC50,[2]; [3],> 100 µM
"COc1ccccc1C(=O)Nc1ccc(Sc2nc3ccccc3s2)c(Cl)c1 [Compound 32, N-(4-(Benzo[d]thiazol-2-ylthio)-3-chlorophenyl)-2-methoxybenzamide]",CC50 at 48 h,[1],> 100 µM
same,IC50,[2]; [3],> 100 µM
"COc1c(Br)cc(Br)cc1C(=O)Nc1ccc(Sc2nc3ccccc3s2)cc1 [Compound 33, N-(4-(Benzo[d]thiazol-2-ylthio)phenyl)-3,5-dibromo-2-methoxybenzamide]",CC50 at 48 h,[1],> 100 µM
same,IC50,[2]; [3],> 100 µM
"COc1c(Br)cccc1C(=O)Nc1ccc(Sc2nc3ccccc3s2)cc1 [Compound 34, N-(4-(Benzo[d]thiazol-2-ylthio)phenyl)-3-bromo-2-methoxybenzamide]",CC50 at 48 h,[1],> 100 µM
"COc1ccc(Br)cc1C(=O)Nc1ccc(Sc2nc3ccccc3s2)cc1 [Compound 35, N-(4-(Benzo[d]thiazol-2-ylthio)phenyl)-5-bromo-2-methoxybenzamide]",CC50 at 48 h,[1],> 100 µM
same,IC50,[2]; [3],> 100 µM
"COc1ccccc1C(=O)Nc1ccc(Sc2nc3ccccc3s2)cc1 [Compound 36, N-(4-(Benzo[d]thiazol-2-ylthio)phenyl)-2-methoxybenzamide]",CC50 at 48 h,[1],> 100 µM
same,IC50,[2]; [3],> 100 µM
"CO[C@H]1/C=C/O[C@@]2(C)Oc3c(C)c(O)c4c(O)c(c(/C=N/N5CCN(C)CC5)c(O)c4c3C2=O)NC(=O)/C(C)=C\C=C\[C@H](C)[C@H](O)[C@@H](C)[C@@H](O)[C@@H](C)[C@H](OC(C)=O)[C@@H]1C [Rifampicin, rifampicin, reference compound]",CC50 at 48 h,[1],72.4 µM
